The text below walks through data of patent publication US20230257372A1 (CHONG KUN DANG PHARMACEUTICAL CORP., priority 2020, published 2023).

Test [1] concerns the target T1, human recombinant HDAC1 (Homo sapiens, UniProt Q13547).
T1 construct: purchased Enzo Life Science, Inc. BML-SE456
Briefly: HDAC1 enzyme activity inhibition (HDAC Fluorimetric Drug Discovery Kit). The format is biochemical. To be noted: read-out: HDAC1. A digest of the protocol: (§1)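 Compounds in 5-fold dilution series were incubated with […] enzyme and 10 μM substrate at 30° C for 60 minutes. Fluor de Lys Developer II was then added for 30 minutes to stop the reaction and develop the fluorescent signal.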

Test [2] concerns the target T2, human recombinant HDAC6 (Homo sapiens, UniProt Q9UBN7).
T2 construct: purchased Calbiochem Inc. 382180
T2 sequence (Q9UBN7 1-1215): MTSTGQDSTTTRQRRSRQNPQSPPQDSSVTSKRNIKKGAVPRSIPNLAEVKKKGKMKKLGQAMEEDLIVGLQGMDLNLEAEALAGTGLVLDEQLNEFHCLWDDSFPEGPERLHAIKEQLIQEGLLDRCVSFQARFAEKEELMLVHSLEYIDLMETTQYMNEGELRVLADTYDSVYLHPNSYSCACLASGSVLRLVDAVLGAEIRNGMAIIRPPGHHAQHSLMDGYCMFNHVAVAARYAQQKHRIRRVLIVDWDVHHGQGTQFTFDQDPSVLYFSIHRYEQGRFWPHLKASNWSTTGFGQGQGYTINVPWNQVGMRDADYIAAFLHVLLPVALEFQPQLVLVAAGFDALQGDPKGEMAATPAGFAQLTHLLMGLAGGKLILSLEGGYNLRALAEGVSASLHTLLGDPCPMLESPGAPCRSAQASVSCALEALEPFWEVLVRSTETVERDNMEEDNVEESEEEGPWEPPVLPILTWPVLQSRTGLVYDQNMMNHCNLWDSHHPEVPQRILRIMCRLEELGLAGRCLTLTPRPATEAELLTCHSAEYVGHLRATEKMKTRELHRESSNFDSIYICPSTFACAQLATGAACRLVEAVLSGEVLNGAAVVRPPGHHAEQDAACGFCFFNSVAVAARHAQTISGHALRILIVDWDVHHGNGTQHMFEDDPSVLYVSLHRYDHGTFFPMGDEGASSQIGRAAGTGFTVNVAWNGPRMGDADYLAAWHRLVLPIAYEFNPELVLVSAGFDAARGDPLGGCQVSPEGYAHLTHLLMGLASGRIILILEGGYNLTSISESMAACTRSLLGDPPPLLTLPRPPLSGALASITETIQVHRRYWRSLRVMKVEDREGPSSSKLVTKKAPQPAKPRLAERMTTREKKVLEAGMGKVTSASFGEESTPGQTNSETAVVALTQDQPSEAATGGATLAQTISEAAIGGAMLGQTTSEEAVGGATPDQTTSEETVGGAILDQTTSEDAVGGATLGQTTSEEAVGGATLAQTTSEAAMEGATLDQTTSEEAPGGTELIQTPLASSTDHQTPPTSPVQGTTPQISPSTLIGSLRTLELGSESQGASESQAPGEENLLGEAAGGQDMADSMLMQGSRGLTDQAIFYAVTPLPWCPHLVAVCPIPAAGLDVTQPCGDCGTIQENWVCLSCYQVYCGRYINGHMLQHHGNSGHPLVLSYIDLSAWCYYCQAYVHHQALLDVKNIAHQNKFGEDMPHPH
Briefly: HDAC6 enzyme activity inhibition (HDAC Fluorimetric Drug Discovery Kit). Format: biochemical. A digest of the protocol: as §1

[3] abbreviates: human recombinant HDAC1, Fluor de Lys substrate, 30° C. 60 minutes.
Where [4] appears, read: human recombinant HDAC6, same protocol as HDAC1.
Where [5] appears, read: human recombinant HDAC1, IC50 calculated with GraphPad Prism.
[6] abbreviates: human recombinant HDAC6, IC50 calculated with GraphPad Prism.

Molecules are shown by their SMILES. Read-outs that look alike come from different tables or passages of the source.

T1 sequence (Q13547 whole entry): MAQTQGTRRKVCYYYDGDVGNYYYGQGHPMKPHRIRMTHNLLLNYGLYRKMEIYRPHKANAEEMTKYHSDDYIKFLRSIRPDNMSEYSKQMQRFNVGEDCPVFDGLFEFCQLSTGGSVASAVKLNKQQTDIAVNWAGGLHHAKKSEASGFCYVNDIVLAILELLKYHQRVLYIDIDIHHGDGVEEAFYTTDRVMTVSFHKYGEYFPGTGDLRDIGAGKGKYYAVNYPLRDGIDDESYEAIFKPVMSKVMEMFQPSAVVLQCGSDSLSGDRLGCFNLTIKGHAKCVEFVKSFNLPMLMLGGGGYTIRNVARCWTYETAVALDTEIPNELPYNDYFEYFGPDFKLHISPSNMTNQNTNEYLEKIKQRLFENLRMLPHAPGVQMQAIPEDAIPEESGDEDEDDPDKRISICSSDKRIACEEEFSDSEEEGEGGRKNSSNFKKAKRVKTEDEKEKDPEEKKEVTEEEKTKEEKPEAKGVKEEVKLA

On to `CN(C)Cc1cccc(-c2cn(Cc3ccc(-c4nnc(C(F)F)o4)cc3F)nn2)c1Cl` [Compound 18554, 1-(2-chloro-3-(1-(4-(5-(difluoromethyl)-1,3,4-oxadiazol-2-yl)-2-fluorobenzyl)-1H-1,2,3-triazol-4-yl)phenyl)-N,N-dimethylmethanamine], for which the IC50 in test [1] (setting [3]) was greater than 50000 nM; in test [2] (setting [4]) it was 49.4 nM. The “HDAC6 selectivity (fold)” value in test [2] (HDAC6 over HDAC1) stood at 1012 fold.
As to `CC(=O)N1CCC[C@H]1c1cn(Cc2ccc(-c3nnc(C(F)F)o3)cn2)nn1` [Compound 4029, (S)-1-(2-(1-((5-(5-(difluoromethyl)-1,3,4-oxadiazol-2-yl)pyridin-2-yl)methyl)-1H-1,2,3-triazol-4-yl)pyrrolidin-1-yl)ethan-1-one], the IC50 is greater than 50000 nM in test [1] (setting [5]) and 208 nM in test [2] (setting [6]). Moreover, the “HDAC6 selectivity (fold)” value in test [2] (HDAC1 IC50 / HDAC6 IC50) amounted to 239 fold.
Regarding `CCN1CCN(C(=O)c2cccc(-c3cn(Cc4ccc(-c5nnc(C(F)F)o5)cn4)nn3)c2)CC1` [Compound 4482, (3-(1-((5-(5-(difluoromethyl)-1,3,4-oxadiazol-2-yl)pyridin-2-yl)methyl)-1H-1,2,3-triazol-4-yl)phenyl)(4-ethylpiperazin-1-yl)methanone], the IC50 in test [1] (setting [5]) is greater than 50000 nM; in test [2] (setting [6]) it was 53 nM. Also, in test [2] (HDAC1 IC50 / HDAC6 IC50), the “HDAC6 selectivity (fold)” value is 943 fold.
In the same order, the values of `CCOC(=O)N1CCC(c2cn(Cc3ccc(-c4nnc(C(F)F)o4)cn3)nn2)CC1` [Compound 3892, Ethyl4-(1-((5-(5-(difluoromethyl)-1,3,4-oxadiazol-2-yl)pyridin-2-yl)methyl)-1H-1,2,3-triazol-4-yl)piperidin-1-carboxylate] are greater than 50000 nM, 140 nM and 357 fold.
Take `CN(C)[C@H]1CCN(Cc2ccc(-c3cn(Cc4ccc(-c5nnc(C(F)F)o5)cc4F)nn3)cc2)C1` [Compound 4604, (S)-1-(4-(1-(4-(5-(difluoromethyl)-1,3,4-oxadiazol-2-yl)-2-fluorobenzyl)-1H-1,2,3-triazol-4-yl)benzyl)-N,N-dimethylpyrrolidin-3-amine]: the IC50 in test [1] (setting [3]) was greater than 50000 nM; in test [2] (setting [4]), 21.3 nM. Also, in test [2] (HDAC6 over HDAC1), the “HDAC6 selectivity (fold)” value is recorded as 2347 fold.
Take `Fc1cc(-c2nnc(C(F)F)o2)cnc1Cn1cc(-c2cc(Cl)cc(CN3CCCC3)c2)nn1` [Compound 19092, 2-(6-((4-(3-chloro-5-(pyrrolidin-1-ylmethyl)phenyl)-1H-1,2,3-triazol-1-yl)methyl)-5-fluoropyridin-3-yl)-5-(difluoromethyl)-1,3,4-oxadiazole]: the IC50 in test [1] (setting [3]) is greater than 50000 nM; in test [2] (setting [4]), 92.4 nM. The “HDAC6 selectivity (fold)” value in test [2] (HDAC6 over HDAC1) is 541 fold.
The like results for `Fc1cc(-c2nnc(C(F)F)o2)cnc1Cn1cc(-c2ccc(CN3CCC3)cc2Cl)nn1` [Compound 19099, 2-(6-((4-(4-(azetidin-1-ylmethyl)-2-chlorophenyl)-1H-1,2,3-triazol-1-yl)methyl)-5-fluoropyridin-3-yl)-5-(difluoromethyl)-1,3,4-oxadiazole] were, in that order, greater than 50000 nM, 47.1 nM and 1061 fold.
With `CC(C)N1CCN(c2cc(-c3cn(Cc4ccc(-c5nnc(C(F)F)o5)cn4)nn3)ccn2)CC1` [Compound 4592, 2-(difluoromethyl)-5-(6-((4-(2-(4-isopropylpiperazin-1-yl)pyridin-4-yl)-1H-1,2,3-triazol-1-yl)methyl)pyridin-3-yl)-1,3,4-oxadiazole], the values for the IC50 in test [1] (setting [3]) and in test [2] (setting [4]) were greater than 50000 nM and 15.4 nM, respectively. In addition, the “HDAC6 selectivity (fold)” value in test [2] (HDAC6 over HDAC1) is on record as 3246 fold.
For `O=C(CO)N1CCC(c2cn(Cc3ccc(-c4nnc(C(F)F)o4)cn3)nn2)CC1` [Compound 3813, 1-(4-(1-((5-(5-(difluoromethyl)-1,3,4-oxadiazol-2-yl)pyridin-2-yl)methyl)-1H-1,2,3-triazol-4-yl)piperidin-1-yl)-2-hydroxyethan-1-one], the IC50 was greater than 50000 nM in test [1] (setting [5]) and 300 nM in test [2] (setting [6]). Further, the “HDAC6 selectivity (fold)” value in test [2] (HDAC1 IC50 / HDAC6 IC50) amounted to 166 fold.
The like results for `CCN1CCN(Cc2cccc(-c3cn(Cc4ccc(-c5nnc(C(F)F)o5)cc4)nn3)c2)CC1` [Compound 4415, 2-(difluoromethyl)-5-(4-((4-(3-((4-ethylpiperazin-1-yl)methyl)phenyl)-1H-1,2,3-triazol-1-yl)methyl)phenyl)-1,3,4-oxadiazole] were, in that order, greater than 50000 nM, 91.7 nM and 545 fold.
The like results for `CC(=O)N1CCCC(c2cn(Cc3ccc(-c4nnc(C(F)F)o4)cn3)nn2)C1` (stereo not drawn) [Compound 4004, 1-(3-(1-((5-(5-(difluoromethyl)-1,3,4-oxadiazol-2-yl)pyridin-2-yl)methyl)-1H-1,2,3-triazol-4-yl)piperidin-1-yl)ethan-1-one] were, in that order, greater than 50000 nM, 332 nM and 150 fold.
Regarding `CC(C)N1CC(c2cn(Cc3ccc(-c4nnc(C(F)F)o4)cn3)nn2)C1` [Compound 3952, 2-(difluoromethyl)-5-(6-((4-(1-isopropylazetidin-3-yl)-1H-1,2,3-triazol-1-yl)methyl)pyridin-3-yl)-1,3,4-oxadiazole], the IC50 in test [1] (setting [5]) was greater than 50000 nM; in test [2] (setting [6]), 653 nM. In addition, the “HDAC6 selectivity (fold)” value in test [2] (HDAC1 IC50 / HDAC6 IC50) turned out to be 76 fold.
The like results for `CN1CCN(Cc2cccc(-c3cn(Cc4ccc(-c5nnc(C(F)F)o5)cn4)nn3)c2)CC1` [Compound 3917, 2-(difluoromethyl)-5-(6-((4-(3-((4-methylpiperazin-1-yl)methyl)phenyl)-1H-1,2,3-triazol-1-yl)methyl)pyridin-3-yl)-1,3,4-oxadiazole] were, in that order, greater than 50000 nM, 32.8 nM and 1524 fold.
Take `Fc1cc(-c2nnc(C(F)F)o2)ccc1Cn1cc(-c2cccc(N3CCN(CC4(F)CC4)CC3)c2F)nn1` [Compound 4602, 2-(difluoromethyl)-5-(3-fluoro-4-((4-(2-fluoro-3-(4-((1-fluorocyclopropyl)methyl)piperazin-1-yl)phenyl)-1H-1,2,3-triazol-1-yl)methyl)phenyl)-1,3,4-oxadiazole]: the IC50 in test [1] (setting [3]) is greater than 50000 nM; in test [2] (setting [4]), 160 nM. Moreover, in test [2] (HDAC6 over HDAC1), the “HDAC6 selectivity (fold)” value came to 313 fold.
As for `CCN1CCN(c2ccc(F)c(-c3cn(Cc4ccc(-c5nnc(C(F)F)o5)cc4)nn3)c2)CC1` [Compound 4452, 2-(difluoromethyl)-5-(4-((4-(5-(4-ethylpiperazin-1-yl)-2-fluorophenyl)-1H-1,2,3-triazol-1-yl)methyl)phenyl)-1,3,4-oxadiazole], the figures for the IC50 in test [1] (setting [5]) and in test [2] (setting [6]) were greater than 50000 nM and 20.3 nM, respectively. Besides, the “HDAC6 selectivity (fold)” value in test [2] (HDAC1 IC50 / HDAC6 IC50) is 2463 fold.
In the same order, the values of `FC(F)c1nnc(-c2ccc(Cn3cc([C@@H]4CCCN4C4CC5(COC5)C4)nn3)nc2)o1` [Compound 4027, (S)-2-(6-((4-(1-(2-oxaspiro[3.3]heptan-6-yl)pyrrolidin-2-yl)-1H-1,2,3-triazol-1-yl)methyl)pyridin-3-yl)-5-(difluoromethyl)-1,3,4-oxadiazole] are greater than 50000 nM, 5000 nM and 10 fold.
As for `CN1CCN(Cc2ccc(-c3cn(Cc4ccc(-c5nnc(C(F)F)o5)cn4)nn3)cc2)CC1` [Compound 4562, 2-(difluoromethyl)-5-(6-((4-(4-((4-methylpiperazin-1-yl)methyl)phenyl)-1H-1,2,3-triazol-1-yl)methyl)pyridin-3-yl)-1,3,4-oxadiazole], the IC50 in test [1] (setting [3]) is greater than 50000 nM; in test [2] (setting [4]) it was 24 nM. For the same molecule, the “HDAC6 selectivity (fold)” value in test [2] (HDAC6 over HDAC1) was 2083 fold.
